In patent publication US9938273B2 (Plexxikon Inc., priority 2015, dated 2018):

Tested on: MOLM-14 F691L cells, FLT3 ITD and FLT3 F691L
Test: Cell proliferation assay (CellTiter-Glo), MOLM-14 F691L
Type: cell-based
Details: Homo sapiens, 72 h, 3d-Growth, GMean
How it was run: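 MOLM-14 AML cells (endogenous FLT3 ITD, AC220-selected D835Y or F691L variants) or murine Ba/F3 expressing full-length FLT3 ITD/D835Y, without IL-3 for FLT3 dependence, 1×10^4 cells/well. Eight-point 1:3 series from 1 μM final, 0.2% DMSO, 3 days at 37 °C. CellTiter-Glo luminescence (ATP) gave IC50.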

Compound | IC50 [µM]
c1ccc(-c2cc3cc(-c4cccc(OC5CCNCC5)n4)cnc3[nH]2)cc1 [Compound P-0050, 2-phenyl-5-[6-(4-piperidyloxy)-2-pyridyl]-1H-pyrrolo[2,3-b]pyridine] | 0.0001 to 10
CC(C)(C#N)NC(=O)c1cccc(-c2cnc3[nH]c(-c4cnc(C(C)(C)O)nc4)cc3c2)n1 [Compound P-0211, N-(1-cyano-1-methyl-ethyl)-6-[2-[2-(1-hydroxy-1-methyl-ethyl)pyrimidin-5-yl]-1H-pyrrolo[2,3-b]pyridin-5-yl]pyridine-2-carboxamide] | 0.0001 to 10
CC(C)(C#N)NC(=O)c1cccc(-c2cnc3[nH]c(-c4cnn(C(=O)C5CC5)c4)cc3c2)n1 [Compound P-0184, N-(1-cyano-1-methyl-ethyl)-6-[2-[1-(cyclopropanecarbonyl)pyrazol-4-yl]-1H-pyrrolo[2,3-b]pyridin-5-yl]pyridine-2-carboxamide] | 0.0001 to 10
CN(C)CC#Cc1cc2cc(-c3cccc(S(=O)(=O)NC4CC4)c3)cnc2[nH]1 [Compound P-0009, N-cyclopropyl-3-[2-[3-(dimethylamino)prop-1-ynyl]-1H-pyrrolo[2,3-b]pyridin-5-yl]benzenesulfonamide] | 0.0001 to 10
COc1ncc(-c2cc3cc(-c4cccc(C(=O)NC(C)(C)C#N)n4)cnc3[nH]2)cn1 [Compound P-0196, N-(1-cyano-1-methyl-ethyl)-6-[2-(2-methoxypyrimidin-5-yl)-1H-pyrrolo[2,3-b]pyridin-5-yl]pyridine-2-carboxamide] | 0.0001 to 10
CC(C)(C#N)NC(=O)c1cccc(-c2cnc3[nH]c(-c4cnn(C(F)F)c4)c(Cl)c3c2)n1 [Compound P-0185, 6-[3-chloro-2-[1-(difluoromethyl)pyrazol-4-yl]-1H-pyrrolo[2,3-b]pyridin-5-yl]-N-(1-cyano-1-methyl-ethyl)pyridine-2-carboxamide] | 0.0001 to 10
CCOc1ncc(-c2cc3cc(-c4cccc(C(=O)NC(C)(C)C#N)n4)cnc3[nH]2)cn1 [Compound P-0203, N-(1-cyano-1-methyl-ethyl)-6-[2-(2-ethoxypyrimidin-5-yl)-1H-pyrrolo[2,3-b]pyridin-5-yl]pyridine-2-carboxamide] | 0.0001 to 10
CC(C)(C#N)NC(=O)c1cccc(-c2cnc3[nH]c(-c4cncnc4)cc3c2)n1 [Compound P-0195, N-(1-cyano-1-methyl-ethyl)-6-(2-pyrimidin-5-yl-1H-pyrrolo[2,3-b]pyridin-5-yl)pyridine-2-carboxamide] | 0.0001 to 10
CC(C)(C#N)NC(=O)c1cccc(-c2cnc3[nH]c(-c4ccc(C5(C#N)CC5)cc4)cc3c2)n1 [Compound P-0194, 6-[2-[4-(1-cyanocyclopropyl)phenyl]-1H-pyrrolo[2,3-b]pyridin-5-yl]-N-(1-cyano-1-methyl-ethyl)pyridine-2-carboxamide] | 0.0001 to 10
O=S(=O)(NC1CC1)c1cccc(-c2cnc3[nH]c(C#CC4CCCCC4)cc3c2)c1 [Compound P-0010, 3-[2-(2-cyclohexylethynyl)-1H-pyrrolo[2,3-b]pyridin-5-yl]-N-cyclopropyl-benzenesulfonamide] | 0.0001 to 10
CC(C)(C#N)NC(=O)c1cccc(-c2cnc3[nH]c(C4=CCS(=O)(=O)CC4)cc3c2)n1 [Compound P-0186, N-(1-cyano-1-methyl-ethyl)-6-[2-(1,1-dioxo-3,6-dihydro-2H-thiopyran-4-yl)-1H-pyrrolo[2,3-b]pyridin-5-yl]pyridine-2-carboxamide] | 0.0001 to 10
O=C(c1cccc(-c2cnc3[nH]c(-c4ccccc4)cc3c2)n1)N1CCC(NC2CC2)C1 (stereo not drawn) [Compound P-0085, [3-(cyclopropylamino)pyrrolidin-1-yl]-[6-(2-phenyl-1H-pyrrolo[2,3-b]pyridin-5-yl)-2-pyridyl]methanone] | 0.0001 to 10
CCCOc1ncc(-c2cc3cc(-c4cccc(C(=O)NC(C)(C)C#N)n4)cnc3[nH]2)cn1 [Compound P-0206, N-(1-cyano-1-methyl-ethyl)-6-[2-(2-propoxypyrimidin-5-yl)-1H-pyrrolo[2,3-b]pyridin-5-yl]pyridine-2-carboxamide] | 0.0001 to 10
O=S(=O)(NC1CCNCC1)c1cccc(-c2cnc3[nH]c(-c4ccccc4)cc3c2)n1 [Compound P-0086, 6-(2-phenyl-1H-pyrrolo[2,3-b]pyridin-5-yl)-N-(4-piperidyl)pyridine-2-sulfonamide] | 0.0001 to 10
CC(C)(C#N)NC(=O)c1cccc(-c2cnc3[nH]c(-c4cnn(CC(F)(F)F)c4)cc3c2)n1 [Compound P-0193, N-(1-cyano-1-methyl-ethyl)-6-[2-[1-(2,2,2-trifluoroethyl)pyrazol-4-yl]-1H-pyrrolo[2,3-b]pyridin-5-yl]pyridine-2-carboxamide] | 0.0001 to 10
NC1CCC(NS(=O)(=O)c2cccc(-c3cnc4[nH]c(-c5ccccc5)cc4c3)n2)CC1 (stereo not drawn) [Compound P-0088, N-(4-aminocyclohexyl)-6-(2-phenyl-1H-pyrrolo[2,3-b]pyridin-5-yl)pyridine-2-sulfonamide] | 0.0001 to 10
CC(C)(C#N)NC(=O)c1cccc(-c2cnc3[nH]c(-c4cnc(C(F)(F)F)nc4)cc3c2)n1 [Compound P-0204, N-(1-cyano-1-methyl-ethyl)-6-[2-[2-(trifluoromethyl)pyrimidin-5-yl]-1H-pyrrolo[2,3-b]pyridin-5-yl]pyridine-2-carboxamide] | 0.0001 to 10
O=C(Nc1cccc(-c2cnc3[nH]c(-c4ccccc4)cc3c2)n1)C1CNC1 [Compound P-0084, N-[6-(2-phenyl-1H-pyrrolo[2,3-b]pyridin-5-yl)-2-pyridyl]azetidine-3-carboxamide] | 0.0001 to 10
N[C@H]1CCN(C(=O)c2ncc(-c3cnc4[nH]c(-c5ccccc5)cc4c3)s2)C1 [Compound P-0054, [(3S)-3-aminopyrrolidin-1-yl]-[5-(2-phenyl-1H-pyrrolo[2,3-b]pyridin-5-yl)thiazol-2-yl]methanone] | 0.0001 to 10
Cc1nn(C(C)C)cc1-c1[nH]c2ncc(-c3cccc(C(=O)NC(C)(C)C#N)n3)cc2c1Cl [Compound P-0192] | 0.0001 to 10
CC(C)(C#N)NC(=O)c1cccc(-c2cnc3[nH]c(-c4cscn4)cc3c2)n1 [Compound P-0167, N-(1-cyano-1-methyl-ethyl)-6-(2-thiazol-4-yl-1H-pyrrolo[2,3-b]pyridin-5-yl)pyridine-2-carboxamide] | 0.0001 to 10
CCc1ncc(-c2cc3cc(-c4cccc(C(=O)NC(C)(C)C#N)n4)cnc3[nH]2)cn1 [Compound P-0205, N-(1-cyano-1-methyl-ethyl)-6-[2-(2-ethylpyrimidin-5-yl)-1H-pyrrolo[2,3-b]pyridin-5-yl]pyridine-2-carboxamide] | 0.0001 to 10
CC(C)(C#N)NC(=O)c1cccc(-c2cnc3[nH]c(-c4ccc(F)nc4)cc3c2)n1 [Compound P-0208, N-(1-cyano-1-methyl-ethyl)-6-[2-(6-fluoro-3-pyridyl)-1H-pyrrolo[2,3-b]pyridin-5-yl]pyridine-2-carboxamide] | 0.0001 to 10
CC(C)(C#N)NC(=O)c1cccc(-c2cnc3[nH]c(-c4ccc(N5CCOCC5)nc4)cc3c2)n1 [Compound P-0197, N-(1-cyano-1-methyl-ethyl)-6-[2-(6-morpholino-3-pyridyl)-1H-pyrrolo[2,3-b]pyridin-5-yl]pyridine-2-carboxamide] | 0.0001 to 10
CC(C)(C#N)NC(=O)c1cccc(-c2cnc3[nH]c(-c4ccc(C(F)(F)F)nc4)cc3c2)n1 [Compound P-0201, N-(1-cyano-1-methyl-ethyl)-6-[2-[6-(trifluoromethyl)-3-pyridyl]-1H-pyrrolo[2,3-b]pyridin-5-yl]pyridine-2-carboxamide] | 0.0001 to 10
C#Cc1cc2cc(-c3cccc(S(=O)(=O)NC4CC4)c3)cnc2[nH]1 [Compound P-0004, N-cyclopropyl-3-(2-ethynyl-1H-pyrrolo[2,3-b]pyridin-5-yl)benzenesulfonamide] | 0.0001 to 10
N#CC1CCN(C(=O)c2cccc(-c3cnc4[nH]c(-c5ccc(F)cc5)cc4c3)n2)C1 (stereo not drawn) [Compound P-0116, 1-[6-[2-(4-fluorophenyl)-1H-pyrrolo[2,3-b]pyridin-5-yl]pyridine-2-carbonyl]pyrrolidine-3-carbonitrile] | 0.0001 to 10
CC(C)Oc1ncc(-c2cc3cc(-c4cccc(C(=O)NC(C)(C)C#N)n4)cnc3[nH]2)cn1 [Compound P-0191, N-(1-cyano-1-methyl-ethyl)-6-[2-(2-isopropoxypyrimidin-5-yl)-1H-pyrrolo[2,3-b]pyridin-5-yl]pyridine-2-carboxamide] | 0.0001 to 10
CNC1CCN(C(=O)c2cccc(-c3cnc4[nH]c(-c5cn(C)nc5C)cc4c3)n2)C1 (stereo not drawn) [Compound P-0049, [6-[2-(1,3-dimethylpyrazol-4-yl)-1H-pyrrolo[2,3-b]pyridin-5-yl]-2-pyridyl]-[3-(methylamino)pyrrolidin-1-yl]methanone] | 0.0001 to 10
CC(C)Oc1ccc(-c2cc3cc(-c4cccc(C(=O)NC(C)(C)C#N)n4)cnc3[nH]2)cn1 [Compound P-0190, N-(1-cyano-1-methyl-ethyl)-6-[2-(6-isopropoxy-3-pyridyl)-1H-pyrrolo[2,3-b]pyridin-5-yl]pyridine-2-carboxamide] | 0.0001 to 10
